Data from ChEMBL document CHEMBL1146079, “Inhibition of human acetyl- and butyrylcholinesterase by novel carbamates of (-)- and (+)-tetrahydrofurobenzofuran and methanobenzodioxepine” (J Med Chem, 2006).
pIC50: −log10 of the molar value.

Legend:
Acetylcholinesterase = Acetylcholinesterase (Homo sapiens, UniProt P22303)
Description: Anticholinesterase activity against human erythrocyte AChE

Cholinesterase = Cholinesterase (Homo sapiens, UniProt P06276)
Cholinesterase, sequence (P06276 whole entry): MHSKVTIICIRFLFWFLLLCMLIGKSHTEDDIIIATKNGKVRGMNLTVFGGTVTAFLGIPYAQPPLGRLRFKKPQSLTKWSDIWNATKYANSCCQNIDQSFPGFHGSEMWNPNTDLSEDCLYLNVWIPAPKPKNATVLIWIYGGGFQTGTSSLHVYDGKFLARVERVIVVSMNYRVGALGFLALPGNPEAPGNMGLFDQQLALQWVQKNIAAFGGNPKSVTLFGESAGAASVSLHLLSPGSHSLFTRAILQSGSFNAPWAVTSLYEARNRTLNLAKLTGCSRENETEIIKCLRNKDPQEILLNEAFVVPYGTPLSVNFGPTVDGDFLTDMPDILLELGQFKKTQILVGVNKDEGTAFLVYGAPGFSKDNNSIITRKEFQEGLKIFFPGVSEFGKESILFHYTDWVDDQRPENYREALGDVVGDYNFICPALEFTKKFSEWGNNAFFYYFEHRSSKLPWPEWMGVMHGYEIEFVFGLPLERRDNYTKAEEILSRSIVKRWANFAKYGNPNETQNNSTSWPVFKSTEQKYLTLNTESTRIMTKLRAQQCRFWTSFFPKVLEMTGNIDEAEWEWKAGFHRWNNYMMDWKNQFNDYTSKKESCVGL
Description: Anticholinesterase activity against human plasma BChE

Acetylcholinesterase, sequence (P22303 whole entry): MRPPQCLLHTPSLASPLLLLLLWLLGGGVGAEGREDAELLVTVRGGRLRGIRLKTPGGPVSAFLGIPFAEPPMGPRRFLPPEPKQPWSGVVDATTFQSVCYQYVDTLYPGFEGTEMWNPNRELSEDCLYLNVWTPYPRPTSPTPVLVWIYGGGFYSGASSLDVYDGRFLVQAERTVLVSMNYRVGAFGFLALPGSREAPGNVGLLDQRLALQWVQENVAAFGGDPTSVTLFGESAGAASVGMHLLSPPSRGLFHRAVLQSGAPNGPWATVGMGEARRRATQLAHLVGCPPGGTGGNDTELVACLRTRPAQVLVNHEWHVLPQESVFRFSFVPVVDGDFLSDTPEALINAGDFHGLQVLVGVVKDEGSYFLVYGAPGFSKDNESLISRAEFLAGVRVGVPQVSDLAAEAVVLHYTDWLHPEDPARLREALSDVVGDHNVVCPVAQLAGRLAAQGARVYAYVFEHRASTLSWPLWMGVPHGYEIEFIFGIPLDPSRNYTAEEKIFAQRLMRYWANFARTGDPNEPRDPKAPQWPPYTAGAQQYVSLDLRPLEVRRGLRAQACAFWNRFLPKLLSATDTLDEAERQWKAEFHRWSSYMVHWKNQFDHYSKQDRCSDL

Row | Structure (SMILES) | pIC50 (Acetylcholinesterase) | pIC50 (Cholinesterase)
1 | CCNC(=O)Oc1ccc2c(c1)[C@]1(C)CO[C@@H](C1)O2 | 5.62 | 6.92
2 | CCNC(=O)Oc1ccc2c(c1)[C@@]1(C)CO[C@H](C1)O2 | 6.21 | 7.64
3 | CCNC(=O)Oc1ccc2c(c1)[C@]1(C)CCN(C)[C@@H]1N2C | 7.03 | 8.40
4 | CCNC(=O)Oc1ccc2c(c1)[C@@]1(C)CCO[C@H]1O2 | 6.31 | 7.55
5 | CC(C)c1ccc(NC(=O)Oc2ccc3c(c2)[C@@]2(C)CCO[C@H]2O3)cc1 |  | 7.40
6 | Cc1ccccc1NC(=O)Oc1ccc2c(c1)[C@]1(C)CCO[C@@H]1O2 |  | 4.94
7 | CNC(=O)Oc1ccc2c(c1)[C@]1(C)CCO[C@@H]1N2C |  | 8.40
8 | CCNC(=O)Oc1ccc2c(c1)[C@]1(C)CCO[C@@H]1O2 | 7.00 | 8.52
9 | CC(C)c1ccc(NC(=O)Oc2ccc3c(c2)[C@]2(C)CCO[C@@H]2N3C)cc1 | 5.41 | 7.77
10 | Cc1ccccc1NC(=O)Oc1ccc2c(c1)[C@@]1(C)CCO[C@H]1O2 |  | 4.44
11 | CC(C)c1ccc(NC(=O)Oc2ccc3c(c2)[C@]2(C)CCO[C@@H]2O3)cc1 |  | 7.89
12 | Cc1ccccc1NC(=O)Oc1ccc2c(c1)[C@@]1(C)CCN(C)[C@H]1N2C | 5.26 | 
13 | Cc1ccccc1NC(=O)Oc1ccc2c(c1)[C@]1(C)CO[C@@H](C1)O2 | 7.01 | 
14 | Cc1ccccc1NC(=O)Oc1ccc2c(c1)[C@@]1(C)CO[C@H](C1)O2 | 7.42 | 4.28
15 | CNC(=O)Oc1ccc2c(c1)[C@@]1(C)CCO[C@H]1N2C | 7.25 | 7.25
16 | CC(C)c1ccc(NC(=O)Oc2ccc3c(c2)[C@]2(C)CO[C@@H](C2)O3)cc1 | 5.46 | 7.27
17 | CC(C)c1ccc(NC(=O)Oc2ccc3c(c2)[C@@]2(C)CCO[C@H]2N3C)cc1 |  | 7.64
18 | CC(C)c1ccc(NC(=O)Oc2ccc3c(c2)[C@@]2(C)CO[C@H](C2)O3)cc1 |  | 7.82
19 | Cc1ccccc1NC(=O)Oc1ccc2c(c1)[C@@]1(C)CCO[C@H]1N2C | 6.85 | 5.29
20 | CCNC(=O)Oc1ccc2c(c1)[C@]1(C)CCO[C@@H]1N2C | 7.09 | 8.70
